Results taken from patent US20130303539A1, “COMPOUNDS WITH TRPV4 ACTIVITY, COMPOSITIONS AND ASSOCIATED METHODS THEREOF” (priority 2012, published 2013).

Columns and labels:
MB model of glaucoma = assay: IOP time course after a single eye drop in the MB model of glaucoma; assay type: in vivo, mouse; settings: single dose eye drop
Method: Specifically, microbeads (MBs) were injected into the anterior chamber of a mouse eye as described in Example 2 with PBS-injected eyes used as controls. Compound 1 (10 mg/kg body weight) (or PBS vehicle) was injected intraperitoneally (IP). […] IOP was measured in mice between 10:00 AM and 1:00 PM with the TonoLab rebound tonometer (Colonial Medical Supply, Franconia, NH/Tyolat, Helsinki, Finland). Mice were sedated with IP injection of Avertin with final amount calculated by weight (e.g., 0.5 ml for 21-24 g animals). Animals were placed on a jack stand platform and the tonolab was clamped on a ring stand and centered onto the mid-cornea. During measurements animal were neither restrained nor touched. Each eye was measured twenty consecutive times, the highest and lowest values were discarded and the values were averaged.
FIG. 9 illustrates the short-term effects of a single dose of Compound 1 (eye drop) in the MB model of glaucoma. IOP was measured as described in Example 3 at the indicated time points after receiving a drop of Compound 1. Compound 1 reduced IOP beginning at 1 hour after dosing and continued through 6 hours after dosing.
FIG. 10 illustrates a time course of Compounds 1, 2, 5 and Compound 2-HCl as well as a positive control compound, timolol, with regard to inhibition of IOP. The experiment was conducted as described in Example 9. Each of the TRPV4 antagonists reduced IOP with a similar time course. Specifically, Compounds 1, 2, 5 and Compound 2-HCl reduced IOP for at least 6 hours after dosing.
FIG. 11 illustrates a time course of Compound 2-HCl activity. The experiment was conducted as described in Example 9. […] 2
FIG. 12 illustrates a comparison of the time course of Compound 2-HCl and Compound 5. The experiment was conducted as described in Example 9.

retinal ganglion cells = assay: TUNEL assay of apoptotic cell death in retina; assay type: cell-based; settings: Compound 1 1 uM, RuR 10 μM
Method: Terminal deoxynucleotidyl transferase-mediated dUTP-biotin nick end labeling (TUNEL) is a common method for detecting fragmentation that results from apoptotic signaling cascades. Retinas were embedded, cryosectioned, and processed for the TUNEL assay following the protocol by Gavrieli et al. (1992). After 30 min. rehydration in 70% ethanol, 2×5 min. rinses in PBS and 1% Triton-X in 1% citrate buffer (pH 7.3), the slides were subjected to a final rinse in PBS. Slides were then incubated for 30 min. in the reaction buffer (30 mM Trizma-HCl, 140 mM Na^+ cacodylate, 1.0 mM CaCl2, 0.2% Triton X-100, pH 7.2). Positive controls were treated with DNAse I (Roche Diagnostics; Branford, Conn.; 10 U/ml) in the reaction buffer. Next, slides were treated for 1 hour with 0.03 units/pi terminal transferase and 4 μM biotin-16-dUTP (Roche Diagnostics). The reaction was terminated in 30 mM Na+ citrate, 300 mM NaCl and 0.2% Triton X-100 in PBS (5 min.) and rinsed in PBS (2×5 min), exposed to 1% bovine serum albumin in PBS for 20 min and rinsed. Apoptotic cells were visualized with a confocal microscope (Zeiss LSM510) and categorized by size. […] This was blocked by RuR and by the TRPV4 antagonist Compound 1.

TRPV4 = TRPV4 (Mus musculus, UniProt Q9EPK8); assay: Block of TRPV4 agonist-induced calcium responses in retinal ganglion cells; assay type: cell-based; set-up: endogenous in cells; host or cells: retinal Müller glial cells
Method: Calcium responses in retinal ganglion cells were elicited by 25 nM agonist GSK in the presence of varying concentrations of Compound 1. The half-maximal dose of inhibition was ˜300 nM.

Sequence of TRPV4 (Q9EPK8 whole entry): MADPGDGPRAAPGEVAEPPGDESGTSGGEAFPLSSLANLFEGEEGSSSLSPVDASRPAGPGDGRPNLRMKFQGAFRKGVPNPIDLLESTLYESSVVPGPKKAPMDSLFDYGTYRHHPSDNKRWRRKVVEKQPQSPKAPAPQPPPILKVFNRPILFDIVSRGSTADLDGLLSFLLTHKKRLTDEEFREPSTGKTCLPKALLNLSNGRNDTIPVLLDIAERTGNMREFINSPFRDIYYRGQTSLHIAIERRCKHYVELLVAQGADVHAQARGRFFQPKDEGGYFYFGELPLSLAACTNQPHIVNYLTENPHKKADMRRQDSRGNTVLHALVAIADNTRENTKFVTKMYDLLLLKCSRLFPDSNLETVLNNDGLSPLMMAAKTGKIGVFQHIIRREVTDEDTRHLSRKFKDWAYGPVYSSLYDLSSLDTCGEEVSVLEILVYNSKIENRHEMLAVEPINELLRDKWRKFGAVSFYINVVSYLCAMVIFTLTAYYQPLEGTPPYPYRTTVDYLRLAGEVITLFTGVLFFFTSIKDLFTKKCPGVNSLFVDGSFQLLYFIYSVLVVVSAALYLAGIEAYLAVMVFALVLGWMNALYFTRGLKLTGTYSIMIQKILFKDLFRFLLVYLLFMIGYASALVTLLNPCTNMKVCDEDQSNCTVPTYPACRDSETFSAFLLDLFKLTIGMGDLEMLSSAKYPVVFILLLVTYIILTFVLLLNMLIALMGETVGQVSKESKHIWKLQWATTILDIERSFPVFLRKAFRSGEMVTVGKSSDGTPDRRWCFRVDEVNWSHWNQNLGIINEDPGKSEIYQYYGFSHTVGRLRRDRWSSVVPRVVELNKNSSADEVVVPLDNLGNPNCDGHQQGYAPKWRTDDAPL

In the case of `Cc1c(C(=O)Nc2cccc(C(F)(F)F)c2)cc(-c2ccccc2)n1CCCN1CCOCC1` [Compound 1, N-(3-(trifluoromethyl)phenyl)-2-methyl-1-(3-morpholinopropyl)-5-phenyl-1H-pyrrole-3-carboxamide], the “onset of IOP reduction after dosing” value (MB model of glaucoma) is reported as 1 h, the “apoptotic cell death (TUNEL) induced by hypotonic swelling” value (retinal ganglion cells; 190 mOsm saline) is reported as “block apoptotic cell death” and the “apoptotic cell death (TUNEL) induced by the TRPV4 agonist GSK” value (retinal ganglion cells; GSK 100 nM) is reported as “block apoptotic cell death”. It also gave an IC50 (TRPV4) of ~300 nM.
